This note sets out measurements from ChEMBL document CHEMBL1127470, “Analogues of the marine immunosuppressant microcolin A: preparation and biological activity” (J Med Chem, 1994).

The first experiment is filed under the species Homo sapiens. Briefly: The compound was tested for inhibition of human splenocyte proliferation by [3H]thymidine incorporation. Type of experiment: functional, organism-based. On the technique in general: Uptake of a labelled nucleoside into DNA is a usual measure of proliferation.
Broadly, the EC50 is the concentration that produces a half-maximal response. High values mean weaker potency, low ones greater potency. `CCCCC(C)CC(C)C(=O)N(C)[C@@H](CC(C)C)C(=O)N[C@H](C(=O)N(C)[C@H](C(=O)N1C[C@@H](O)C[C@H]1C(=O)N1C(=O)C=CC1C)C(C)C)C(C)OC(C)=O` (some centres not stated) had an EC50 of 0.02 nM.

Molecule `CCCCC(C)CC(C)C(=O)N(C)[C@@H](CC(C)C)C(=O)N[C@H](C(=O)N(C)[C@H](C(=O)N1C[C@@H](O)C[C@H]1C(=O)N1C(=O)C=CC1C)C(C)C)C(C)O` (some centres not stated) yielded an EC50 of 0.04 nM.

Regarding `CCCCC(C)CC(C)C(=O)N(C)[C@@H](CC(C)C)C(=O)N[C@H](C(=O)N(C)[C@H](C(=O)N1C[C@@H](OC(C)=O)C[C@H]1C(=O)N1C(=O)C=CC1C)C(C)C)C(C)OC(C)=O` (some centres not stated), the EC50 was 10.2 nM.

On to `CCCCC(C)CC(C)C(=O)N(C)[C@@H](CC(C)C)C(=O)N[C@H](C(=O)N(C)[C@H](C(=O)N1CCC[C@H]1C(=O)N1C(=O)C=CC1C)C(C)C)C(C)OC(C)=O` (some centres not stated), for which it took 4.1 nM to reach a half-maximal effect (EC50).

Molecule `CCCCC(C)CC(C)C(=O)N(C)[C@@H](CC(C)C)C(=O)N[C@H](C(=O)N(C)[C@H](C(=O)OC)C(C)C)C(C)OO` (some centres not stated) yielded an EC50 of 380 nM.

In turn, `CCCCC(C)CC(C)C(=O)N(C)[C@@H](CC(C)C)C(=O)N[C@H](C(=O)N(C)[C@H](C(=O)N1C[C@@H](O)C[C@H]1C(=O)OC)C(C)C)[C@@H](C)O` (some centres not stated) came in with a 50% effective concentration (EC50) of over 781 nM.

The molecule `CCCCC(C)CC(C)C(=O)N(C)[C@@H](CC(C)C)C(=O)N[C@@H]1C(=O)N(C)[C@@H](C(C)C)C(=O)O[C@@H]1C` (some centres not stated) gave a half-maximal effective concentration (EC50) of 8.1 nM.

With `CCCCC(C)CC(C)C(=O)N(C)[C@@H](CC(C)C)C(=O)N[C@H](C(=O)N(C)[C@H](C(=O)N1CCC[C@H]1C(=O)N1C(=O)CCC1C)C(C)C)C(C)OC(C)=O` (some centres not stated), a half-maximal response (EC50) required 341 nM.

As to `CC1C=CC(=O)N1C(=O)[C@@H]1C[C@H](O)CN1` (some centres not stated), the half-maximal effective concentration (EC50) was over 2400 nM.

In turn, `CCCCC(C)CC(C)C(=O)N(C)[C@@H](CC(C)C)C(=O)N[C@H](C(=O)N(C)[C@H](C(=O)N1C[C@@H](O)C[C@H]1C(=O)N1C(=O)CCC1C)C(C)C)C(C)OC(C)=O` (some centres not stated) registered an EC50 of over 668 nM.

Molecule `CCCCC(C)CC(C)C(=O)N(C)[C@@H](CC(C)C)C(=O)N[C@H](C(=O)N(C)[C@H](C(=O)N1CC(=O)C[C@H]1C(=O)N1C(=O)C=CC1C)C(C)C)C(C)OC(C)=O` (single isomer, unassigned) had an EC50 of 5.4 nM. That is a single-digit nanomolar value.

Another experiment is filed under the species Mus musculus. Nature of the experiment: The compound was tested for inhibition of murine splenocyte proliferation by [3H]thymidine incorporation. The class given is functional, organism-based.
Molecule `CCCCC(C)CC(C)C(=O)N(C)[C@@H](CC(C)C)C(=O)N[C@H](C(=O)N(C)[C@H](C(=O)N1C[C@@H](O)C[C@H]1C(=O)N1C(=O)C=CC1C)C(C)C)C(C)OC(C)=O` (some centres not stated) had an EC50 of 0.02 nM.

The molecule `CCCCC(C)CC(C)C(=O)N(C)[C@@H](CC(C)C)C(=O)N[C@H](C(=O)N(C)[C@H](C(=O)N1C[C@@H](O)C[C@H]1C(=O)N1C(=O)C=CC1C)C(C)C)C(C)O` (some centres not stated) displayed a half-maximal effective concentration (EC50) of 0.006 nM. This EC50 lies about 3.3-fold lower than the previous one.

In turn, `CCCCC(C)CC(C)C(=O)N(C)[C@@H](CC(C)C)C(=O)N[C@H](C(=O)N(C)[C@H](C(=O)N1C[C@@H](OC(C)=O)C[C@H]1C(=O)N1C(=O)C=CC1C)C(C)C)C(C)OC(C)=O` (some centres not stated) displayed an EC50 of 19 nM.

For `CCCCC(C)CC(C)C(=O)N(C)[C@@H](CC(C)C)C(=O)N[C@H](C(=O)N(C)[C@H](C(=O)N1CCC[C@H]1C(=O)N1C(=O)C=CC1C)C(C)C)C(C)OC(C)=O` (some centres not stated), the EC50 was determined as 20.5 nM.

For the molecule `CCCCC(C)CC(C)C(=O)N(C)[C@@H](CC(C)C)C(=O)N[C@H](C(=O)N(C)[C@H](C(=O)OC)C(C)C)C(C)OO` (some centres not stated), the midpoint of the response, the EC50, lay at 380 nM.

`CCCCC(C)CC(C)C(=O)N(C)[C@@H](CC(C)C)C(=O)N[C@H](C(=O)N(C)[C@H](C(=O)N1C[C@@H](O)C[C@H]1C(=O)OC)C(C)C)[C@@H](C)O` (some centres not stated) gave an EC50 of over 781 nM.

On to `CCCCC(C)CC(C)C(=O)N(C)[C@@H](CC(C)C)C(=O)N[C@@H]1C(=O)N(C)[C@@H](C(C)C)C(=O)O[C@@H]1C` (some centres not stated), for which the EC50 is 10 nM.

Regarding `CCCCC(C)CC(C)C(=O)N(C)[C@@H](CC(C)C)C(=O)N[C@H](C(=O)N(C)[C@H](C(=O)N1CCC[C@H]1C(=O)N1C(=O)CCC1C)C(C)C)C(C)OC(C)=O` (some centres not stated), the concentration for a half-maximal effect (EC50) is over 668 nM.

The molecule `CC1C=CC(=O)N1C(=O)[C@@H]1C[C@H](O)CN1` (some centres not stated) displayed an EC50 of over 2400 nM.

The molecule `CCCCC(C)CC(C)C(=O)N(C)[C@@H](CC(C)C)C(=O)N[C@H](C(=O)N(C)[C@H](C(=O)N1C[C@@H](O)C[C@H]1C(=O)N1C(=O)CCC1C)C(C)C)C(C)OC(C)=O` (some centres not stated) returned an EC50 of over 668 nM.

The molecule `CCCCC(C)CC(C)C(=O)N(C)[C@@H](CC(C)C)C(=O)N[C@H](C(=O)N(C)[C@H](C(=O)N1CC(=O)C[C@H]1C(=O)N1C(=O)C=CC1C)C(C)C)C(C)OC(C)=O` (single isomer, unassigned) showed an EC50 of 5.4 nM.
